Where “and” joins values, the source holds several entries; their conditions need not be identical. Identical values can stand only once.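 Step 1: Grow cells in 96-well plates. Step 2: Expose to compound for 48 hours at 5 concentrations. Step 3: Interpolate endpoints linearly; if unreached, use highest concentration. The concentration for 50% growth inhibition is given as GI50. TGI: total growth inhibition.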
Experiments:
Assay in all cases: growth of human tumour cells (NCI), 48 h
[1] = system: DU-145 prostate
[2] = system: SW-620 colon
[3] = system: SN12C renal
[4] = system: SF-268 CNS
[5] = system: MOLT-4 leukemia
[6] = system: RXF 393 renal
[7] = system: HCT-116 colon
[8] = system: HCC-2998 colon
[9] = system: DMS 114 small cell lung
[10] = system: DLD-1 colon
[11] = system: M19-MEL melanoma
[12] = system: HOP-18 NSCLC

| SMILES | GI50 [1] | TGI [1] | GI50 [2] | TGI [2] | GI50 [3] | TGI [3] | GI50 [4] | TGI [4] | GI50 [5] | TGI [5] | GI50 [6] | TGI [6] | GI50 [7] | TGI [7] | GI50 [8] | TGI [8] | TGI [9] | TGI [10] | TGI [11] | TGI [12] |
| --- | --- | --- | --- | --- | --- | --- | --- | --- | --- | --- | --- | --- | --- | --- | --- | --- | --- | --- | --- | --- |
| CCC(=O)c1c(C(F)(F)F)n([O-])c2ccccc2[n+]1=O | 1.59 µM | 3.27 µM | 2.65 µM | 17.4 µM | 1.98 µM | 7.29 µM | 1.22 µM | 6.34 µM | 0.577 µM | > 100 µM | 1.67 µM | 10.2 µM | 1.56 µM | 8.83 µM | 1.68 µM | 6.31 µM | – | – | – | – |
| OC1c2ccccc2C2C(O)c3ccccc3C12 (centres undefined) | – | – | – | > 100 µM | – | > 100 µM | – | > 100 µM | – | > 100 µM | – | > 100 µM | – | – | – | > 100 µM | > 100 µM | > 100 µM | > 100 µM | > 100 µM |
| CCOC(=O)c1cn(CC)c2cc3c(cc2c1=O)SCS3 | – | – | – | > 100 µM | – | > 100 µM | – | > 100 µM | – | > 100 µM | – | > 100 µM | – | – | – | > 100 µM | > 100 µM | > 100 µM | > 100 µM | > 100 µM |
| CCN(CC)CCC(=O)O[C@H]1CC[C@H](CC(C)[C@H]2CC(=O)C(C)C=C(C)[C@H](OC(=O)CCN(CC)CC)C(OC)C(=O)[C@@H](C)CC(C)/C=C/C=C/C=C(C)C(OC)CC3CC[C@H](C)[C@](O)(O3)C(=O)C(=O)N3CCCCC3C(=O)O2)CC1OC (some centres undefined) | 1.17 µM | > 10 µM and 8.38 µM | 1.37 µM | 3.66 µM and 2 µM | 1.42 µM | 4.28 µM and 2.17 µM | 1.16 µM | 3.06 µM and 3.99 µM | 0.0255 µM | 5.39 µM and 1.32 µM | – | 2.2 µM | 1.24 µM | 2.57 µM and 2.54 µM | 1.03 µM | 2.29 µM and 2.04 µM | 1.54 µM | 2.62 µM | – | 3.35 µM |
| CCCCN(CCCC)CCC(O)c1cc2ccc(C(F)(F)F)cc2c2cc(C(F)(F)F)ccc12 (centres undefined) | 6.15 µM | 18.7 µM | 1.76 µM | 5.13 µM | 3.84 µM | 14.6 µM | 4.98 µM | 18.3 µM | 2.67 µM | 6.66 µM | 1.56 µM | 3.16 µM | 1.59 µM | 3.04 µM | 2.08 µM | 4.58 µM | – | – | – | – |
| O=C1NN=C(c2ccc([N+](=O)[O-])cc2)C1n1nc(-c2ccccc2)c2ccccc2c1=O (centres undefined) | – | – | – | > 100 µM | – | > 100 µM | – | > 100 µM | – | > 100 µM | – | > 100 µM | – | > 100 µM | – | > 100 µM | – | > 78.7 µM | > 100 µM | > 100 µM |
| CC(=O)n1c(-c2ccc(Cl)c(Cl)c2)cn(-c2ccc(Cl)cc2)c1=O | 17.4 µM | 45.8 µM | 30.9 µM | > 100 µM | 31.8 µM | > 100 µM | 23.5 µM | > 100 µM | 23.3 µM | 90.2 µM | 11.4 µM | 27 µM | 19.6 µM | > 100 µM | 91.5 µM | > 100 µM | – | – | – | – |
| COc1ccc(CN=C(N)N=C(N)N)cc1OC | > 1000 µM | > 1000 µM | > 1000 µM | > 1000 µM | 358 µM | > 1000 µM | 472 µM | > 1000 µM | > 1000 µM | > 1000 µM | > 1000 µM | > 1000 µM | > 1000 µM | > 1000 µM | > 1000 µM | > 1000 µM | – | – | – | – |
| O=[N+]([O-])c1cc2c(ccc3occc32)o1 | 1.16 µM | 9.84 µM | 3.17 µM | > 100 µM | 2.96 µM | > 100 µM | 2.21 µM | 12.8 µM | 2.31 µM | 28.6 µM | 1.49 µM | 3.17 µM | 1.34 µM | 5.73 µM | 1.88 µM | 3.88 µM | – | – | – | – |
| Cc1c(C(N)=O)sc2c1c(=O)n(Cc1ccccc1)c1nnc(S(=O)(=O)CC(=O)Nc3ccc(Cl)cc3)n21 | 7.29 µM | 36.7 µM | 4.87 µM | 20.4 µM | 4.67 µM | 28.2 µM | 6.8 µM | 27.4 µM | 15.6 µM | 46.8 µM | 2.41 µM | 7.13 µM | 2.1 µM | 5.22 µM | 18.7 µM | > 100 µM | – | – | – | – |
| CCCC(CCC)C(=O)OCC1(CO)C/C(=C\c2ccc(C(F)(F)F)cc2)C(=O)O1 (centres undefined) | 13.4 µM | 27.8 µM | 8.64 µM | 21.8 µM | 11.9 µM | 25.7 µM | 16.2 µM | 33.3 µM | 14.3 µM | 31.9 µM | 16.6 µM | 37.8 µM | 12.6 µM | 25.6 µM | 10.9 µM | 24 µM | – | – | – | – |
| Nc1ccccc1C#C/C=C\C#Cc1ccccc1F | 5.49 µM | 28 µM | 16 µM | > 100 µM | 7.37 µM | 20.9 µM | 4.23 µM | 23.3 µM | 2.13 µM | > 100 µM | 17.8 µM | 57.5 µM | 3.52 µM | 16.1 µM | 2.25 µM | 5.26 µM | – | – | – | – |
| COc1ccc2c(c1)C=C1CSCC3=Cc4cc(OC)ccc4OC13O2 | 0.402 µM | > 100 µM | 0.373 µM | > 100 µM | 0.723 µM | > 100 µM | 2.86 µM | > 100 µM | 0.486 µM | > 100 µM | 0.216 µM | 0.645 µM | 0.471 µM | > 100 µM | 1.07 µM | > 100 µM | – | – | – | – |
| CC(C)=CCc1cc(C2COc3cc4c(c(O)c3C2=O)C=CC(C)(C)O4)c(O)cc1O (centres undefined) | – | 27.9 µM | – | 57.3 µM | – | 26.3 µM | – | 30.5 µM | – | 20.7 µM | – | 20.6 µM | – | 54.5 µM | – | 32.7 µM | – | – | – | – |
| O=CN1N=C(c2ccc(Nc3ccnc4cc(Cl)ccc34)cc2)CC1c1ccc(Cl)cc1 (centres undefined) | 1.94 µM | > 100 µM | 0.478 µM | > 100 µM | 0.978 µM | > 100 µM | 0.847 µM | > 100 µM | 0.529 µM | > 100 µM | 1.88 µM | > 100 µM | 0.499 µM | > 100 µM | 1.61 µM | 8.11 µM | – | – | – | – |
| CN(C)C(=S)SCC(N)=O | – | > 100 µM | – | > 100 µM | – | > 100 µM | – | > 100 µM | – | > 100 µM | – | > 100 µM | – | > 100 µM | – | > 100 µM | – | – | – | – |
